{"source": "patent US6677302B2", "about": "“Compositions and methods for the treatment of viral disorders” (The Trustees of Boston University, priority 1996, dated 2004)", "key": {"[1]": {"tested_on": "Fibroblasts (mouse BALB/c-3T3)", "test": "MIC on cell proliferation, 7 days in culture", "format": "cell-based", "procedure": "(§1) The ability of arginine butyrate to induce differentiation has been evaluated and is measured by inhibition of growth, in some of the neoplastic cell types previously reported to be sensitive to (sodium) butyric acid, and found arginine butyrate to be as potent as butyric acid. We have also extended that work to additional cell types and found Arginine Butyrate to induce differentiation in these new cell types. Table 1 lists the cell types tested and the minimum inhibitory concentration (MIC) of sodium butyrate (NaB) and arginine butyrate (ArgB) on these cell lines. The MIC is the lowest dose that prevents all growth over the 7 days that the cells are maintained in culture, that is the minimum dose that prevents an increase in cell number. […] The […] of ArgB and NaB were equivalent on all cell lines tested."}, "[2]": {"tested_on": "Fibroblasts (normal human)", "test": "MIC on cell proliferation, 7 days in culture", "format": "cell-based", "details": "lowest dose that prevents all growth over 7 days", "procedure": "as §1"}, "Choriocarcinoma (JAR)": {"tested_on": "Choriocarcinoma (JAR)", "test": "MIC on cell proliferation, 7 days in culture", "format": "cell-based, human", "procedure": "as §1"}, "[3]": {"tested_on": "Colonic Adenocarcinoma (HT29)", "test": "MIC on cell proliferation, 7 days in culture", "format": "cell-based, human", "procedure": "as §1"}, "Erythroleukemia (K562)": {"tested_on": "Erythroleukemia (K562)", "test": "MIC on cell proliferation, 7 days in culture", "format": "cell-based, human", "procedure": "as §1"}, "Gastric Carcinoma (AGS)": {"tested_on": "Gastric Carcinoma (AGS)", "test": "MIC on cell proliferation, 7 days in culture", "format": "cell-based, human", "procedure": "as §1"}, "Glioblastoma Multiforme": {"tested_on": "Glioblastoma Multiforme", "test": "MIC on cell proliferation, 7 days in culture", "format": "cell-based, human", "procedure": "as §1"}, "Myeloid Leukemia (HL60)": {"tested_on": "Myeloid Leukemia (HL60)", "test": "MIC on cell proliferation, 7 days in culture", "format": "cell-based, human", "procedure": "as §1"}, "Osteosarcoma (HOS)": {"tested_on": "Osteosarcoma (HOS)", "test": "MIC on cell proliferation, 7 days in culture", "format": "cell-based, human", "procedure": "as §1"}, "Rhabdomyosarcoma": {"tested_on": "Rhabdomyosarcoma", "test": "MIC on cell proliferation, 7 days in culture", "format": "cell-based, human", "procedure": "as §1"}, "MCF-7 (breast cancer)": {"tested_on": "MCF-7 (breast cancer)", "test": "Survival fraction after 72 hours exposure (MTT assay)", "format": "cell-based, human", "procedure": "(§2) Growth inhibition was measured by the MTT assay. Survival fraction is calculated from at least 3 experiments, and differences in survival fraction are statistically significant P<0.05, using the Paired Two-Sample For Means T-Test. […] PC-3=prostate cancer; A549=non-small cell cancer; OvCar=ovarian cancer; CaCo=colon cancer; MCF-7=breast cancer; and SW900=non-small cell lung cancer."}, "OvCar (ovarian cancer)": {"tested_on": "OvCar (ovarian cancer)", "test": "Survival fraction after 72 hours exposure (MTT assay)", "format": "cell-based, human", "procedure": "as §2"}, "PC-3 (prostate cancer)": {"tested_on": "PC-3 (prostate cancer)", "test": "Survival fraction after 72 hours exposure (MTT assay)", "format": "cell-based, human", "procedure": "as §2"}, "[4]": {"tested_on": "SW900 (non-small cell lung cancer)", "test": "Survival fraction after 72 hours exposure (MTT assay)", "format": "cell-based, human", "procedure": "as §2"}, "[5]": {"tested_on": "HLA antigens in K562 cells", "details": "one hour of exposure to 1 mM", "procedure": "HLA Induction: Arginine butyrate was tested for its ability to induce expression of HLA antigens in K562 cells, a human erythroleukemia cell line."}, "[6]": {"test": "Stability testing of arginine butyrate solution", "format": "physicochemical", "details": "solution for injection", "from_the_text": "Butyric acid is a short chain fatty acid present in foods such as dairy products. Arginine is an amino acid which is commonly used in hyperalimentation solutions in hospitals throughout the country. Butyric acid was obtained from Aldrich, catalog number W-212. L-Arginine is anhydrous. Arginine was combined with butyric acid, pH 5.0-5.5, in sterile, non-pyrogenic water for injection to neutralize the fatty acid. The solution was filtered through a Millipore System at a final concentration for injection of 100 mg/ml or 25 mg/ml. Each lot was pyrogen tested and tested for sterility and purity. […] Since 10% arginine butyrate solution is hypertonic (100 mg/ml), it must be infused through a long or deep IV access to avoid peripheral venous irritation. Arginine butyrate was infused via an infusion pump. European pharmacokinetic studies of arginine butyrate given as a “slow” and 90 minute bolus of 500 mls of a 5% solution (2.5 g/M in two normal volunteers, and found a 15 minute elimination period. Plasma levels from patients with hemoglobinopathies have shown that butyric acid disappears within 5 to 15 minutes after an infusion of up to 2,000 mg/kg/day."}, "refractory neoplasms": {"tested_on": "refractory neoplasms", "test": "Tumor response in patients with refractory neoplasms", "format": "in vivo, human", "procedure": "Three patients with refractory neoplasms (breast, melanoma, adenocarcinoma, of unknown primary) have been enrolled and completed 1-2 cycles of arginine butyrate as a dose of 500 mg/kg/day over 6-8 hours for 10 days.\nThree patients (with breast cancer, bowel cancer or Hodgkins disease) have completed two cycles of arginine butyrate at a dose of 750 mg/kg/day for 10 days. […] Otherwise, there was no other objective measures of organ progressed after treatment was topped. […] There was a further resolution of the disease during the second cycle. Disease progression was noted one month after second cycle was completed. At 1000 mg/kg/day, 3 patients have been enrolled on study.\nAn inter-group dose-escalation study is being conducted in patients with refractory malignancies. There are 3 patients per group with the dose levels starting at 500 mg/kg/day, and increasing by 250 mg/kg/day per group, if toxicity permits. Doses are given by 8 hour IV infusion, daily, for 5 days times 2 weeks, with weekends off, for a total of 10 days of treatment per cycle."}, "[7]": {"tested_on": "Colonic Adenocarcinoma (HT 29)", "test": "Differentiation and growth arrest of tumor cell line", "format": "cell-based, human", "procedure": "The effects of arginine butyrate compounds on differentiation of several human tumor cell lines were evaluated by visual inspection and by histochemical and pathological staining:\nInhibition of DNA synthesis (as measured by ^3H-thymidine incorporation) occurred by 6 hours. Expression of the proto-oncogene c-myc was decreased by 2 hours."}, "SKNSH cells": {"tested_on": "SKNSH cells", "test": "Induction of apoptosis", "format": "cell-based, human", "details": "FIG. 1b"}, "[8]": {"tested_on": "human malignant cell lines from breast, colon, lung, prostate, ovarian and lymphoid sources", "test": "Cytotoxicity as single agent, cell death at 72 hours", "format": "cell-based", "details": "all concentrations tested"}, "IL-2 receptor": {"tested_on": "IL-2 receptor", "test": "Expression of the IL-2 receptor", "format": "cell-based", "from_the_text": "The IL-2 receptor is a target for therapies currently under development. For example, antibodies directed to the IL-2 receptor and conjugated to a toxin, are currently being tested in the clinic, and IL-2, itself conjugated to a toxin, is currently being tested in the clinic. […] This increased expression might potentiate the therapies under development."}, "[9]": {"details": "Table 3, 0.5 AB (0.5 mM), 72 hours"}, "[10]": {"details": "Table 4, 0.5 AB (0.5 mM), 72 hour"}}, "note": "Marks after values point to notes of the source that are not given here."}
{"substance": "arginine butyrate", "values": [{"measurement": "MIC", "setting": "[1]", "result": ">5,000 μM"}, {"measurement": "MIC", "setting": "[2]", "result": ">5,000 μM"}, {"measurement": "MIC", "setting": "Choriocarcinoma (JAR)", "result": 156, "unit": "µM"}, {"measurement": "MIC", "setting": "[3]", "result": "2,000 μM"}, {"measurement": "MIC", "setting": "Erythroleukemia (K562)", "result": "1,250 μM"}, {"measurement": "MIC", "setting": "Gastric Carcinoma (AGS)", "result": "2,000 μM"}, {"measurement": "MIC", "setting": "Glioblastoma Multiforme", "result": "1,000 μM"}, {"measurement": "MIC", "setting": "Myeloid Leukemia (HL60)", "result": 78, "unit": "µM"}, {"measurement": "MIC", "setting": "Osteosarcoma (HOS)", "result": 312, "unit": "µM"}, {"measurement": "MIC", "setting": "Rhabdomyosarcoma", "result": 156, "unit": "µM"}, {"measurement": "Survival Fraction", "setting": "MCF-7 (breast cancer); Table 4, 0.5 AB (0.5 mM)", "result": "0.74*"}, {"measurement": "Survival Fraction", "setting": "MCF-7 (breast cancer); Table 4, .05 AB", "result": "0.89*"}, {"measurement": "Survival Fraction", "setting": "OvCar (ovarian cancer); [9]", "result": "0.86**"}, {"measurement": "Survival Fraction", "setting": "OvCar (ovarian cancer); [10]", "result": "0.88*"}, {"measurement": "Survival Fraction", "setting": "OvCar (ovarian cancer); Table 4, .05 AB, 72 hour", "result": 0.96}, {"measurement": "Survival Fraction", "setting": "PC-3 (prostate cancer); [9]", "result": "0.67*"}, {"measurement": "Survival Fraction", "setting": "PC-3 (prostate cancer); [10]", "result": "0.74*"}, {"measurement": "Survival Fraction", "setting": "PC-3 (prostate cancer); Table 4, .05 AB, 72 hour", "result": "0.82*"}, {"measurement": "Survival Fraction", "setting": "[4]; Table 4, 0.5 AB (0.5 mM)", "result": 0.92}, {"measurement": "Survival Fraction", "setting": "[4]; Table 4, .05 AB", "result": 0.95}, {"measurement": "HLA expression increase", "setting": "[5]", "result": "more than 20 fold"}, {"measurement": "stability in glass containers", "setting": "[6]", "result": "up to 404 days"}, {"measurement": "objective tumor responses", "setting": "refractory neoplasms; 500 mg/kg/day, three patients, 1-2 cycles", "result": "No objective tumor responses were noted"}, {"measurement": "stable disease", "setting": "refractory neoplasms; 750 mg/kg/day, after two cycles", "result": "Two patients had stable disease after two cycles"}, {"measurement": "partial response, reduction in tumor area", "setting": "refractory neoplasms; 750 mg/kg/day, patient with Hodgkin's disease, after first cycle", "result": "> 80", "unit": "%"}, {"measurement": "morphology and differentiation markers", "setting": "[7]", "result": "developed a mature brush border, and increased expression of sucrase/isomaltase"}, {"measurement": "time by which expression of proto-oncogene c-myc was decreased", "setting": "[7]", "result": "≤ 2", "unit": "h"}, {"measurement": "time by which inhibition of DNA synthesis (3H-thymidine incorporation) occurred", "setting": "[7]", "result": "≤ 6", "unit": "h"}, {"measurement": "growth arrest", "setting": "[7]; no further growth out to 25 days", "result": "absolute growth arrest by day 3-4"}, {"measurement": "apoptosis", "setting": "SKNSH cells", "result": "induces apoptosis"}, {"measurement": "concentrations at which cell death at 72 hours was seen", "setting": "[8]", "result": "0.1 to 5.0", "unit": "mM"}, {"measurement": "IL-2 receptor expression", "setting": "IL-2 receptor", "result": "increase expression of the IL-2 receptor"}]}
